{
  "source": "patent US12024715B2",
  "about": "“Compositions and methods for improved T cells” (Temple University-Of The Commonwealth System of Higher …, priority 2017, dated 2024)",
  "key": {"[1]": {"system": "promoter regions of Id3, Id2, Eomes and Prdm1 loci", "test": "ChIP analysis of Ezh2 and H3K27me3 deposition in cultured Pmel-1 cells", "assay_type": "cell-based, mouse", "conditions": "Akt inhibition", "procedure": "A Millipore ChIP kit and Diagenode ChIP kit was used for ChIP assay as described by the manufacturer. DNA-protein complexes were crosslinked with formaldehyde at a final concentration of 1%. Sonicated extracts were precleared and incubated with Abs specific to Ezh2, H3K27me3, or nonspecific anti-IgG. The immunoprecipitated DNA was quantified by real-time quantitative PCR."}, "[2]": {"system": "Id3, Id2, Eomes and Prdm1", "test": "Real-time RT-PCR analysis of Ezh2-targeted genes in cultured Pmel-1 cells", "assay_type": "cell-based, mouse", "conditions": "WT Pmel-1 cells, anti-CD3/CD28 Ab+IL-2, inhibitor treatment for 7 days", "procedure": "Splenic and LN CD44loCD8+ TN cells were prepared as previously described (Zhang et al., 2002, J Immunol, 169:7111-7118; Zhang et al., 2005, Nat Med, 11:1299-1305). The purity was usually 90-95%. CD8+ T cell cultures were set up as previously described (He et al., 2013, Blood, 122:4119-4128; Tong et al., 2014, J Immunol, 192:5012-5022). In brief, CD44loCD8+ naive T cells (were cultured in the presence of anti-CD3 (2 μg/ml) and anti-CD28 (2.0 μg/ml) Abs together with recombinant human IL-2 (10 ng/ml; R&D Systems). In vivo sorted T cells and cultured T cells were restimulated with anti-CD3 Ab (1 μg/ml; BioLegend) or human gp100 (10^−6 M) for 5 hours before intracellular staining. Bone marrow-derived dendritic cells (DCs) were generated as previously described (Zhang et al., 2005, Nat Med, 11:1299-1305). For TAT-Cre experiments, 10^6 purified CD8^+ T cells or splenocytes were incubated in 100 μL serum-free RPMI containing 90 to 100 μg/mL TAT-Cre fusion protein for 16 hours at 37° C. After extensive washing, treated cells were kept in vitro culture for another 5 days.\nThe MigR1 retroviral vector system was described previously (Tong et al., 2014, J Immunol, 192:5012-5022; Pear et al., 1998, Blood, 92:3780-3792). Ezh2, Ezh2 mutants, and Id3 cDNA was cloned into Mig-R1 (GFP) vector. For retroviral infection, CD8+ T cells were prestimulated with anti-CD3/CD28 Ab for 24 hours, and then the retrovirus supernatant was added in the presence of 8 μg/ml polybrene (Sigma). Cells were spinoculated at 3000 rpm, 32° C. for 3 hours. The same retroviral infection procedure was repeated 24 hours later (Tong et al., 2014, J Immunol, 192:5012-5022).\nRNA was isolated with an RNeasy Mini kit (Qiagen) and cDNA was generated by reverse transcription (Applied Biosystems). Real-time RT-PCR was performed with a SYBR green PCR mix (ABI Biosystems) in the Realplex Eppendorf Real-time PCR instrument (Eppendorf AG). Gene expression levels were calculated relative to the 18s gene. Data were collected and quantitatively analyzed on a Realplex sequence detection system (Eppendorf AG), and Applied Biosystems StepOne Plus Real-time PCR systems (Applied Biosystems)."}, "[3]": {"system": "B16 melanoma", "test": "Adoptive transfer of Pmel-1 cells into B6 mice with pre-established B16 melanoma, tumor size over time", "assay_type": "in vivo, mouse", "conditions": "Pmel-1 cells treated during ex vivo culture, transferred into B16 melanoma-bearing B6 mice", "procedure": "Pmel-1 T cells (1×10^4 to 1×10^6) were transferred into sublethally irradiated B6 mice (5.0 Gy). IL-2 (100,000 IU) was administered intraperitoneally twice a day, and BM-derived DCs which have been pulsed with gp100 (10 μg) were transferred via tail vein, for constitutively three days after adoptive transfer. C57BL/6 mice were injected subcutaneously with 5×10^5 B16 melanoma cells. In some experiments, Ezh2^fl/fl mice were intravenously received VVA-gp100 or VVA-OVA.\nThe Abs used for flow cytometric analyses were purchased from eBioscience, BioLegend, or BD Biosciences. Flow cytometric analyses were performed with FACS LSRII (BD Biosciences) as described (Zhang et al., 2005, Nat Med, 11:1299-1305; Zhang et al., 2002, J Immunol, 169:7111-7118). B16 mouse melanoma cell line was from American Type Culture Collection."}, "[4]": {"system": "pEzh2S21 and H3K27me3", "test": "Immunoblot analysis of TCR-activated Pmel-1 CD8+ T cells", "assay_type": "cell-based, mouse", "conditions": "proliferating Pmel-1 CD8+ T cells stimulated in vitro for 7 days, with or without MK2206"}},
  "data": [
    {"molecule": "NC1(c2ccc(-c3nc4ccn5c(=O)[nH]nc5c4cc3-c3ccccc3)cc2)CCC1", "note": "[MK2206]", "values": [
      {"measurement": "amount of Ezh2 at the promoter regions of Id3, Id2, Eomes and Prdm1 loci", "setting": "[1]", "value": "significantly increased"},
      {"measurement": "amount of H3K27me3 at the promoter regions of Id3, Id2, Eomes and Prdm1 loci", "setting": "[1]", "value": "significantly increased"},
      {"measurement": "Eomes expression", "setting": "[2]", "value": "reducing"},
      {"measurement": "Id2 expression", "setting": "[2]", "value": "reducing"},
      {"measurement": "Id3 expression", "setting": "[2]", "value": "upregulated"},
      {"measurement": "Prdm1 expression", "setting": "[2]", "value": "reducing"},
      {"measurement": "anti-tumor activity (tumor growth)", "setting": "[3]", "value": "greater anti-tumor activity than untreated Pmel-1 cells, but was less potent than Ezh2S21A-transduced Pmel-1 cells"},
      {"measurement": "H3K27me3 (immunoblot)", "setting": "[4]", "value": "increase"},
      {"measurement": "pEzh2S21 (immunoblot)", "setting": "[4]", "value": "marked decrease"}
    ]},
    {"molecule": "Oc1cccc(-c2nc(N3CCOCC3)c3oc4ncccc4c3n2)c1", "note": "[PI103]", "values": [
      {"measurement": "Eomes expression", "setting": "[2]", "value": "reducing"},
      {"measurement": "Id2 expression", "setting": "[2]", "value": "reducing"},
      {"measurement": "Id3 expression", "setting": "[2]", "value": "upregulated"},
      {"measurement": "Prdm1 expression", "setting": "[2]", "value": "reducing"}
    ]}
  ]
}
